Test results from patent publication US11173173B2, “Methods for treating chemoresistant cancer-initiating cells” (UNIVERSITY OF CONNECTICUT, priority 2015, dated 2021).

Assays:
[1] = test system: colon cancer; conditions: in vitro; cited from earlier work
[2] = cited from earlier work
[3] = test system: pS^552-β-catenin; assay: Western analysis of pS552-β-catenin in compound-treated TOP and FOP cells
Method: (§1) Cytotoxicity profiles (CTG) of compounds were also determined. […] TOP and FOP cells were treated with candidate compounds at EC90, EC50 and EC25 derived from (b) for 48 hours, washed and flash frozen for Western analysis (c).
(§2) Activity of compounds was tested against HEK-TOP cells vs. HEK FOP cells for inhibition of luciferase activity. The cytotoxicity profiles of the compounds were also tested using Cell Titer Glo assay (Promega) on HEK-TOP cell lines. […] The HEK cells and HEK Top cells were plated at 300,000 cells/well in 6 well plates and were treated in duplicate with EC90, EC50 and EC25 concentrations of the 25 repurchased compounds as well as three controls. After 48 h of exposure, the cells were washed with PBS and flash frozen. The frozen cells were lysed directly in plates for Western analysis.

[4] = test system: pan β-catenin; assay: Western analysis of pan β-catenin in compound-treated TOP and FOP cells; conditions: TOP and FOP cells treated 48 hours at EC90, EC50, EC25
Method: as §1, §2

[5] = test system: BM cells isolated from leukemic Pten:β-cat^Act double mutants (LSCs, HSPCs); assay: In vitro treatment of BM cells from leukemic mice, flow cytometry for LSCs and HSPCs; assay type: cell-based, mouse; conditions: BM cells from leukemic double mutants in vitro
Method: Doxorubicin, 0105375, and thioguanosine were added to 11, 33 or 100 nM and cultured for 72 hours and analyzed by flow cytometry for LSCs (a) and HSPCs (b) as in FIG. 1. Fold change before and after culture for each population is indicated relative to equivalent vehicle control concentrations.
Bone marrow cells from leukemic mice at 8 weeks post-induction were cultured overnight at 5-20×10^4 cells per well in 96-well U-bottom tissue culture plates (Becton, Dickinson and Company; Cat. No. 353077) in HSC expansion media in low O2 conditions as previously described (Perry, J. M. et al. Cooperation between both Wnt/{beta}-catenin and PTEN/PI3K/Akt signaling promotes primitive hematopoietic stem cell self-renewal and expansion. Genes Dev 25, 1928-1942 (2011)). Doxorubicin (Sigma; D1515), 0105375 ((S)-N-(2-bromobenzyl)-N-(1-hydroxy-3-phenylpropan-2-yl)ethenesulfonamide, University of Kansas CMLD compound), or Thioguanosine was mixed with HSC expansion media and added to the cultures to obtain final concentrations of 11, 33, 100 nM. Equivalent amounts of DMSO alone (vehicle control) were added to parallel cultures for comparison. Half-media changes were performed approximately every 24 hrs. Cultures were analyzed after 72 hrs exposure to the indicated drug.

Row | SMILES | reversal of resistance to PI3K and Akt inhibitors [1] | activity in vivo [2] | inhibition of pS552-β-catenin (Western) ([3]; TOP and FOP cells treated 48 hours at EC90, EC50, EC25) | concentration needed to inhibit pS552-β-catenin ([3]; relatively high concentrations) [μM] | effect on pan β-catenin (Western) [4] | potency relative to DXR [5]
1 | Oc1nc(-c2ccc(C(F)(F)F)cc2)nc2c1CSCC2 [XAV-939] | reverse this resistance in vitro | low activity of this inhibitor in vivo |  |  |  | 
2 | C=CS(=O)(=O)N(Cc1ccccc1Br)[C@H](CO)Cc1ccccc1 [compound 0105375, (S)-N-(2-bromobenzyl)-N-(1-hydroxy-3-phenylpropan-2-yl)ethenesulfonamide] |  |  | effectively inhibited pS^552-β-catenin | > 1 | no significant effect on pan β-catenin | far less potency than DXR
